According to US20230357152A1 (priority 2020, published 2023):

Assays:
Experiment in all cases: microbe, parasite or virus in culture
Type in all cases: cell-based
Fusarium culmorum = conditions: 168 h
Phytophthora infestans = conditions: 168 h, read-out: Fungal growth at 31 ppm (%) PHYTIN
Septoria tritici = conditions: Zymoseptoria tritici, 168 h

CNC(=O)/C(=N/OC)c1cccc(C)c1CO/N=C(\C)c1cncc(/C(C)=N/OC)n1 [Example 83]
activity at 31 ppm (Fusarium culmorum): 21%

CO/N=C(/C(=O)OC)c1cccc(C)c1CO/N=C(\C)c1ccc(Cl)nn1 [Example 91]
activity at 31 ppm (Phytophthora infestans): 0% | activity at 31 ppm (Fusarium culmorum): 16%

CNC(=O)/C(=N/OC)c1cccc(C)c1CO/N=C(\C)c1nccc2ccccc12 [Example 45]
activity at 31 ppm (Septoria tritici): 6% | activity at 31 ppm (Phytophthora infestans): 0% | activity at 31 ppm (Fusarium culmorum): 4%

CO/N=C(/C(=O)OC)c1cccc(C)c1CO/N=C(\C)c1nccc(C(F)(F)F)n1 [Example 71]
activity at 31 ppm (Septoria tritici): 0% | activity at 31 ppm (Phytophthora infestans): 0%

CO/N=C(/C(=O)OC)c1cccc(C)c1CO/N=C(\C)c1cc(-c2cccc(C(F)(F)F)c2)sn1 [Example 35]
activity at 31 ppm (Fusarium culmorum): 20%

CNC(=O)/C(=N/OC)c1cccc(C)c1CO/N=C(\C)c1cc(C(F)(F)F)nc(C)n1 [Example 58]
activity at 31 ppm (Septoria tritici): 21% | activity at 31 ppm (Phytophthora infestans): 11% | activity at 31 ppm (Fusarium culmorum): 17%

CNC(=O)/C(=N/OC)c1cccc(C)c1CO/N=C(\C)c1cc(OC)ccn1 [Example 56]
activity at 31 ppm (Phytophthora infestans): 0% | activity at 31 ppm (Fusarium culmorum): 11%

CO/N=C(/C(=O)OC)c1cccc(C)c1CO/N=C(\C)c1cccc(C(F)(F)F)n1 [Example 1]
activity at 31 ppm (Septoria tritici): 10%

CNC(=O)/C(=N/OC)c1cccc(C)c1CO/N=C(\C)c1cc(C)ccn1 [Example 26]
activity at 31 ppm (Septoria tritici): 7% | activity at 31 ppm (Phytophthora infestans): 0% | activity at 31 ppm (Fusarium culmorum): 12%

CO/N=C(/C(=O)OC)c1cccc(C)c1CO/N=C(\C)c1cnc(C)c(F)c1 [Example 100]
activity at 31 ppm (Septoria tritici): 19% | activity at 31 ppm (Phytophthora infestans): 0% | activity at 31 ppm (Fusarium culmorum): 12%

CNC(=O)/C(=N/OC)c1cccc(C)c1CO/N=C(\C)c1cc(-c2ccc(Cl)cc2)on1 [Example 20]
activity at 31 ppm (Phytophthora infestans): 3% | activity at 31 ppm (Fusarium culmorum): 17%

CO/N=C(/C(=O)OC)c1cccc(C)c1CO/N=C(\C)c1cncn1C [Example 102]
activity at 31 ppm (Phytophthora infestans): 0%

CNC(=O)/C(=N/OC)c1cccc(C)c1CO/N=C(\C)c1cccc(OC)n1 [Example 3]
activity at 31 ppm (Septoria tritici): 4% | activity at 31 ppm (Phytophthora infestans): 0% | activity at 31 ppm (Fusarium culmorum): 6%

CNC(=O)/C(=N/OC)c1cccc(C)c1CO/N=C(\C)c1cc2ccccc2cn1 [Example 67]
activity at 31 ppm (Septoria tritici): 5% | activity at 31 ppm (Phytophthora infestans): 0% | activity at 31 ppm (Fusarium culmorum): 9%

CO/N=C(/C(=O)OC)c1cccc(C)c1CO/N=C(\C)c1ccc(C#CC2CC2)nc1 [Example 68]
activity at 31 ppm (Phytophthora infestans): 3% | activity at 31 ppm (Fusarium culmorum): 13%

CO/N=C(/C(=O)OC)c1cccc(C)c1CO/N=C(\C)c1ncsc1C(F)(F)F [Example 40]
activity at 31 ppm (Septoria tritici): 0% | activity at 31 ppm (Phytophthora infestans): 8%

CO/N=C(/C(=O)OC)c1cccc(C(F)(F)F)c1CO/N=C(\C)c1cc(-c2ccc(Cl)cc2)on1 [Example 16]
activity at 31 ppm (Fusarium culmorum): 19%

CNC(=O)/C(=N/OC)c1cccc(C)c1CO/N=C(\C)c1cc(-c2ccccc2)sn1 [Example 38]
activity at 31 ppm (Phytophthora infestans): 6% | activity at 31 ppm (Fusarium culmorum): 16%

CO/N=C(/C(=O)OC)c1cccc(C)c1CO/N=C(\C)c1cc(-c2ccc(Cl)cc2)sn1 [Example 7]
activity at 31 ppm (Fusarium culmorum): 11%

CNC(=O)/C(=N/OC)c1cccc(C(F)(F)F)c1CO/N=C(\C)c1cc(-c2ccc(Cl)cc2)on1 [Example 17]
activity at 31 ppm (Septoria tritici): 1% | activity at 31 ppm (Phytophthora infestans): 0% | activity at 31 ppm (Fusarium culmorum): 14%

CNC(=O)/C(=N/OC)c1cccc(C)c1CO/N=C(\C)c1cc(-c2ccc(Cl)cc2)sn1 [Example 8]
activity at 31 ppm (Phytophthora infestans): 6%

CO/N=C(/C(=O)OC)c1cccc(C)c1CO/N=C(\C)c1cc(-c2cccc(C(F)(F)F)c2)on1 [Example 19]
activity at 31 ppm (Fusarium culmorum): 20%

CNC(=O)/C(=N/OC)c1cccc(C)c1CO/N=C(\C)c1nccc(C(F)(F)F)n1 [Example 73]
activity at 31 ppm (Septoria tritici): 21% | activity at 31 ppm (Phytophthora infestans): 1% | activity at 31 ppm (Fusarium culmorum): 13%

CO/N=C(/C(=O)OC)c1cccc(C)c1CO/N=C(\C)c1cn(C)nc1C(F)(F)F [Example 51]
activity at 31 ppm (Septoria tritici): 3% | activity at 31 ppm (Fusarium culmorum): 8%

CNC(=O)/C(=N/OC)c1cccc(C)c1CO/N=C(\C)c1cnc(C)c(F)c1 [Example 101]
activity at 31 ppm (Phytophthora infestans): 0% | activity at 31 ppm (Fusarium culmorum): 15%

CO/N=C(/C(=O)OC)c1cccc(C)c1CO/N=C(\C)c1nccc2ccccc12 [Example 44]
activity at 31 ppm (Septoria tritici): 2% | activity at 31 ppm (Phytophthora infestans): 15%
